Reference: ChEMBL document CHEMBL5512665, “A CARM1 Inhibitor Potently Suppresses Breast Cancer Both In Vitro and In Vivo” (J Med Chem, 2024)
Activity calls are given as the source filed them. No cut-off for these calls is given here.

How the values were obtained:
MCF7 [1] = test: Antitumor activity against human MCF7 cells xenografted in BALB/C mouse assessed as reduction of tumor weight at 25 mg/kg,ip administrated every other day for 29 days; format: functional, organism-based; settings: time 29.0 day
[2] = Toxicity in BALB/C mouse xenografted with human MCF7 cells assessed as change in spleen morphology at 25 mg/kg,ip administrated every other day for 29 days; format: organism-based; settings: in vivo, 696 h, time 29 day
[3] = Toxicity in BALB/C mouse xenografted with human MCF7 cells assessed as change in kidney morphology at 50 mg/kg,ip administrated every other day for 29 days; format: organism-based; settings: in vivo, 696 h, time 29 day
MCF7 [4] = test: Antitumor activity against human MCF7 cells xenografted in BALB/C mouse assessed as downregulation of N-Myc gene expression at 50 mg/kg,ip administrated every other day for 29 days by RT-qPCR analysis; format: functional, organism-based; settings: time 29.0 day
MCF7 [5] = test: Antitumor activity against human MCF7 cells xenografted in BALB/C mouse assessed as downregulation of NRIP1 gene expression at 50 mg/kg,ip administrated every other day for 29 days by RT-qPCR analysis; format: functional, organism-based; settings: time 29.0 day
MCF7 [6] = test: Antitumor activity against human MCF7 cells xenografted in BALB/C mouse assessed as downregulation of PGR gene expression at 50 mg/kg,ip administrated every other day for 29 days by RT-qPCR analysis; format: functional, organism-based; settings: time 29.0 day
MCF7 [7] = test: Antitumor activity against human MCF7 cells xenografted in BALB/C mouse assessed as upregulation of ISG15 gene expression at 50 mg/kg,ip administrated every other day for 29 days by RT-qPCR analysis; format: functional, organism-based; settings: time 29.0 day
MCF7 [8] = test: Antitumor activity against human MCF7 cells xenografted in BALB/C mouse assessed as upregulation of IFIT1 gene expression at 25 mg/kg,ip administrated every other day for 29 days by RT-qPCR analysis; format: functional, organism-based; settings: time 29.0 day
MCF7 [9] = test: Antitumor activity against human MCF7 cells xenografted in BALB/C mouse assessed as upregulation of DDX58 gene expression at 50 mg/kg,ip administrated every other day for 29 days by RT-qPCR analysis; format: functional, organism-based; settings: time 29.0 day
MDA-MB-231 = test: Antitumor activity against human MDA-MB-231 cells xenografted in BALB/C mouse assessed as inhibition of tumor growth at 25 mg/kg,ip administrated daily for 11 days; format: functional, organism-based; settings: time 11.0 day
[10] = Toxicity in BALB/C mouse xenografted with human MDA-MB-231 cells assessed as change in heart morphology at 50 mg/kg,ip administrated daily for 11 days; format: organism-based; settings: in vivo, 264 h, time 11 day
[11] = Toxicity in BALB/C mouse xenografted with human MDA-MB-231 cells assessed as change in liver morphology at 25 mg/kg,ip administrated daily for 11 days; format: organism-based; settings: in vivo, 264 h, time 11 day
4T1 [12] = test: Antitumor activity against mouse 4T1 cells implanted in BALB/C mouse assessed as inhibition of tumor weight at 50 mg/kg,ip administrated daily for 14 days; format: functional, organism-based; settings: time 14.0 day
4T1 [13] = test: Antitumor activity against mouse 4T1 cells implanted in BALB/C mouse assessed as inhibition of tumor size at 50 mg/kg,ip administrated daily for 14 days; format: functional, organism-based; settings: time 14.0 day
[14] = Toxicity in BALB/C mouse implanted with mouse 4T1 cells assessed as change in lung morphology at 25 mg/kg,ip administrated daily for 14 days; format: organism-based; settings: in vivo, 336 h, time 14 day
[15] = Toxicity in BALB/C mouse implanted with mouse 4T1 cells assessed as change in kidney morphology at 50 mg/kg,ip administrated daily for 14 days; format: organism-based; settings: in vivo, 336 h, time 14 day
4T1 [16] = test: Antitumor activity against mouse 4T1 cells implanted in BALB/C mouse assessed as downregulation of NRIP1 gene expression at 50 mg/kg,ip administrated daily for 14 days by RT-qPCR analysis; format: functional, organism-based; settings: time 14.0 day
4T1 [17] = test: Antitumor activity against mouse 4T1 cells implanted in BALB/C mouse assessed as upregulation of IFNalpha gene expression at 25 mg/kg,ip administrated daily for 14 days by RT-qPCR analysis; format: functional, organism-based; settings: time 14.0 day
4T1 [18] = test: Antitumor activity against mouse 4T1 cells implanted in BALB/C mouse assessed as upregulation of ISG15 gene expression at 25 mg/kg,ip administrated daily for 14 days by RT-qPCR analysis; format: functional, organism-based; settings: time 14.0 day
4T1 [19] = test: Antitumor activity against mouse 4T1 cells implanted in BALB/C mouse assessed as upregulation of CCL5 gene expression at 25 mg/kg,ip administrated daily for 14 days by RT-qPCR analysis; format: functional, organism-based; settings: time 14.0 day
4T1 [20] = test: Antitumor activity against mouse 4T1 cells implanted in BALB/C mouse assessed as upregulation of CD8A expression at 50 mg/kg,ip administrated daily for 14 days by immunohistochemical staining based analysis; format: functional, organism-based; settings: time 14.0 day
4T1 [21] = test: Antitumor activity against mouse 4T1 cells implanted in BALB/C mouse assessed as increase in infiltration of CD8 positive T cells at 50 mg/kg,ip administrated daily for 14 days by immunohistochemical staining based analysis; format: functional, organism-based; settings: time 14.0 day
MCF7 [22] = test: Synergistic antiproliferative activity against human MCF7 cells assessed as inhibition of colony formation at 2.5 uM incubated for 10 days in presence of tamoxifen by crystal violet staining based analysis; format: functional, cell-based; settings: time 10.0 day
MCF7 [23] = test: Synergistic antiproliferative activity against human MCF7 cells assessed as downregulation of GREB1 gene expression at 2.5 uM incubated for 6 hrs in presence of fulvestrant by RT-qPCR analysis; format: functional, cell-based
MCF7 [24] = test: Synergistic antitumor activity against human MCF7 cells xenografted in BALB/C mouse assessed as downregulation of TFF1 gene expression at 25 mg/kg,ip administrated every other day for 15 days in presence of 5 mg/kg tamoxifen oral administration by RT-qPCR analysis; format: functional, organism-based; settings: time 15.0 day
MCF7 [25] = test: Potentiation of etoposide induced antiproliferative activity against human MCF7 cells assessed as inhibition of cell growth at 2.5 uM incubated for 7 days in presence of etoposide by celltiter 96 aqueous one solution cell proliferation assay; format: functional, cell-based; settings: time 7.0 day
MCF7 [26] = test: Potentiation of etoposide induced antiproliferative activity against human MCF7 cells assessed as upregulation of ISG15 gene expression at 2.5 uM in presence of etoposide by RT-qPCR analysis; format: functional, cell-based
4T1 [27] = test: Potentiation of etoposide induced antiproliferative activity against mouse 4T1 cells assessed as upregulation of IFNalpha gene expression at 2.5 uM in presence of etoposide by RT-qPCR analysis; format: functional, cell-based
4T1 [28] = test: Potentiation of etoposide induced antiproliferative activity against mouse 4T1 cells assessed as upregulation of ISG15 gene expression at 2.5 uM in presence of etoposide by RT-qPCR analysis; format: functional, cell-based
4T1 [29] = test: Potentiation of etoposide induced antiproliferative activity against mouse 4T1 cells assessed as upregulation of IFIT1 gene expression at 2.5 uM in presence of etoposide by RT-qPCR analysis; format: functional, cell-based
4T1 [30] = test: Potentiation of etoposide induced antitumor activity against mouse 4T1 cells implanted in BALB/C mouse assessed as upregulation of CCL5 gene expression at 25 mg/kg,ip administrated daily for 12 days in presence of 8 mg/kg etoposide administration by RT-qPCR analysis; format: functional, organism-based; settings: time 12.0 day
4T1 [31] = test: Potentiation of etoposide induced antitumor activity against mouse 4T1 cells implanted in BALB/C mouse assessed as upregulation of CD8A expression at 25 mg/kg,ip administrated daily for 12 days in presence of 8 mg/kg etoposide administration by immunohistochemical staining based analysis; format: functional, organism-based; settings: time 12.0 day

Q: Which Activity (MCF7 [1]) does the source give for `Cc1ccc(-c2nc(N3CCN(CCN(C)C)CC3)ncc2-c2ccoc2)cc1.Cl.Cl` here?
A: Active

Q: What about the Activity [2] of the same molecule?
A: Non-Toxic

Q: And the Activity [3]?
A: Non-Toxic

Q: And the Activity (MCF7 [4])?
A: Active

Q: And the Activity (MCF7 [5])?
A: Active

Q: What about the Activity (MCF7 [6]) of the same molecule?
A: Active

Q: What about the Activity (MCF7 [7]) of the same molecule?
A: Active

Q: What about the Activity (MCF7 [8]) of the same molecule?
A: Active

Q: And the Activity (MCF7 [9])?
A: Active

Q: And the Activity (MDA-MB-231)?
A: Active

Q: What about the Activity [10] of the same molecule?
A: Non-Toxic

Q: And the Activity [11]?
A: Non-Toxic

Q: What about the Activity (4T1 [12]) of the same molecule?
A: Active

Q: And the Activity (4T1 [13])?
A: Active

Q: And the Activity [14]?
A: Non-Toxic

Q: And the Activity [15]?
A: Non-Toxic

Q: What about the Activity (4T1 [16]) of the same molecule?
A: Active

Q: What about the Activity (4T1 [17]) of the same molecule?
A: Active

Q: What about the Activity (4T1 [18]) of the same molecule?
A: Active

Q: What about the Activity (4T1 [19]) of the same molecule?
A: Active

Q: What about the Activity (4T1 [20]) of the same molecule?
A: Active

Q: And the Activity (4T1 [21])?
A: Active

Q: What about the Activity (MCF7 [22]) of the same molecule?
A: Active

Q: What about the Activity (MCF7 [23]) of the same molecule?
A: Active

Q: And the Activity (MCF7 [24])?
A: Active

Q: And the Activity (MCF7 [25])?
A: Active

Q: What about the Activity (MCF7 [26]) of the same molecule?
A: Active

Q: What about the Activity (4T1 [27]) of the same molecule?
A: Active

Q: And the Activity (4T1 [28])?
A: Active

Q: And the Activity (4T1 [29])?
A: Active

Q: What about the Activity (4T1 [30]) of the same molecule?
A: Active

Q: What about the Activity (4T1 [31]) of the same molecule?
A: Active
